Reference: patent US6605620B1, “Cyclic amine compounds and pharmaceutical composition containing the same” (Kowa Co., Ltd., priority 2001, dated 2003)
pIC50: −log10 of the molar value. Structures can show the parent of a compound that is named as a salt.

Tested on: U937 cells adhered to HUVEC stimulated by TNFα
Experiment: Inhibitory effect on cell adhesion (U937 adhesion to TNFα-stimulated HUVEC)
Format: cell-based, human
Settings: Homo sapiens; U937 adhesion to TNFα-stimulated HUVEC; fluorescence (PKH2) readout
Method: The test was conducted by reference to the method by Ross et al. (J. Biol. Chem., 267 8537-8543 (1992)). More specifically, after human umbilical venous endothelial cells (HUVEC) were cultured on a 48-well plate to confluent growth, TNFα was added thereto. Upon elapsed time of 5 hours after the addition, U937, which was a human monocytic/histocytic cell fluorescence-labeled with PKH2 (product of Sigma-Aldrich Co., Ltd.), was added in a proportion of 1×10^6 cells per well. After the plate was left at rest at room temperature for 1 hour, unadhered U937 was washed out and lysed in 1% Triton X-100 to measure a remaining fluorescence intensity (excitation wavelength: 480 nm; measuring wavelength: 530 nm). HUVEC and U937 were cultured in EGM-2 (product of Sanko Junyaku K. K.) and 10% FCS-containing RPMI1640, respectively. Each test agent was added to HUVEC upon the addition of TNFα and to U937 24 hours prior to the cell adhesion test. The inhibitory activity was calculated out as IC50 value after inhibitory ratio at each concentration of test compounds was determined. The inhibitory ratio was calculated according to the equation […], wherein A is the number of U937 cells adhered to HUVEC stimulated by TNFα when no test agent was added, B is the number of U937 cells adhered to HUVEC not stimulated by TNFα when no test agent was added, and C is the number of U937 cells adhered to HUVEC stimulated by TNFα when the test agent was added. As control compounds, Test Compound 1 described in Japanese Patent Application Laid-Open No. 9-143075 and dilazep described in Japanese Patent Application Laid-Open No. 11-92382 were simultaneously evaluated.

| Structure (SMILES) | pIC50 |
| --- | --- |
| COc1cc(C(=O)OCCCN2CCCN(CCCOC(=O)c3cc(OC)c(OC)c(OC)c3)CC2)cc(OC)c1OC [Dilazep, dilazep, reference compound] | < 5.00 |
| COc1cc(-c2cc(CN3CC[C@H](N(C)Cc4ccnc(-c5cc(OC)c(OC)c(OC)c5)c4)C3)ccn2)cc(OC)c1OC [Example 3, (3S)-3-[N-Methyl-N-[[2-(3,4,5-trimethoxyphenyl)pyridin-4-yl]methyl]amino]-1-[[2-(3,4,5-trimethoxyphenyl)pyridin-yl]methyl]pirrolidine Tertrahydrochloride] | 6.52 |
| COc1cc(-c2cc(CNC3CCN(Cc4ccnc(-c5cc(OC)c(OC)c(OC)c5)c4)CC3)ccn2)cc(OC)c1OC [Example 5, 1-[[2-(3,4,5-Trimethoxyphenyl)pyridin-4-yl]methyl]-4-[[2-(3,4,5-trimethoxyphenyl)pyridin-4-yl]methylamino]piperidine Difumalate] | 6.70 |
| COc1cc(-c2cncc(CN(C)C3CCN(Cc4ccnc(-c5cc(OC)c(OC)c(OC)c5)c4)CC3)c2)cc(OC)c1OC [Example 7, 4-[N-Methyl-N-[[5-(3,4,5-trimethoxyphenyl)pyridin-3-yl]methyl]amino]-1-[[2-(3,4,5-trimethoxyphenyl)pyridin-4-yl]methyl]piperidine Difumarate] | 6.52 |
| COc1ccc(N(Cc2ccnc(-c3cc(OC)c(OC)c(OC)c3)c2)C2CCN(Cc3ccnc(-c4cc(OC)c(OC)c(OC)c4)c3)CC2)cc1 [Example 10, 4-[N-(4-Methoxyphenyl)-N-[[2-(3,4,5-trimethoxypheny)pyridin-4-yl]methyl]amino]-1-[[2-(3,4,5-trimethoxyphenyl)pyridin-4-yl]methyl]piperidine Trihydrochloride] | 7.40 |
| COc1ccc(N(Cc2cncc(-c3cc(OC)c(OC)c(OC)c3)c2)C2CCN(Cc3ccnc(-c4cc(OC)c(OC)c(OC)c4)c3)CC2)cc1 [Example 13, 4-[N-(4-Methoxyphenyl)-N-[[5-(3,4,5-trimethoxyphenyl)pyridin-3-yl]methyl]amino]-1-[[2-(3,4,5-trimethoxyphenyl)pyridin-4-yl]methyl]piperidine Trihydrochloride] | 7.52 |
| COc1cc(-c2cc(CN3CCC(N(Cc4ccccc4)Cc4ccnc(-c5cc(OC)c(OC)c(OC)c5)c4)CC3)ccn2)cc(OC)c1OC [Example 16, 4-[N-Benzyl-N-[[2-(3,4,5-trimethoxyphenyl)pyridin-4-yl]methyl]amino]-1-[[2-(3,4,5-trimethoxyphenyl)pyridin-4-yl]methyl]piperidine Tetrahydrochloride] | 6.52 |
| COc1cc(-c2cncc(CN(Cc3ccccc3)C3CCN(Cc4ccnc(-c5cc(OC)c(OC)c(OC)c5)c4)CC3)c2)cc(OC)c1OC [Example 19, 4-[N-Benzyl-N-[[5-(3,4,5-trimethoxypheny)pyridin-3-yl]methyl]amino]-1-[[2-(3,4,5-trimethoxyphenyl)pyridin-4-yl]methyl]piperidine Tetrahydrochloride] | 6.52 |
| COc1cc(OC)cc(N(Cc2ccnc(-c3cc(OC)c(OC)c(OC)c3)c2)C2CCN(Cc3ccnc(-c4cc(OC)c(OC)c(OC)c4)c3)CC2)c1 [Example 23, 4-[N-(3,5-Dimethoxyphenyl)-N-[[2-(3,4,5-trimethoxyphenyl)pyridin-4-yl]methyl]amino]-1-[[2-(3,4,5-trimethoxyphenyl)pyridin-4-yl]methyl]piperidine Trihydrochloride] | 7.52 |
| COc1cc(-c2cc(CN3CCC(N(Cc4ccnc(-c5cc(OC)c(OC)c(OC)c5)c4)c4ccc5c(c4)OCO5)CC3)ccn2)cc(OC)c1OC [Example 29, 4-[N-(3,4-Methylenedioxyphenyl)-N-[[2-(3,4,5-trimethoxyphenyl)pyridin-4-yl]methyl]amino]-1-[[2-(3,4,5-trimethoxyphenyl)pyridin-4-yl]methyl]piperidine Trihydrochloride] | 7.52 |
| COc1cc(-c2cc(CN3CCC(N(C)Cc4ccnc(-c5cc(OC)c(OC)c(OC)c5)c4)CC3)ccn2)cc(OC)c1OC [Example 36, 4-[N-Methyl-N-[[2-(3,4,5-trimethoxyphenyl)pyridin-4-yl]methyl]amino]-1-[[2-(3,4,5-trimethoxyphenyl)pyridin-4-yl]methyl]piperidine Tetrahydrochloride] | 6.70 |
| COc1cc(-c2cc(CN3CCC(N(Cc4ccnc(-c5cc(OC)c(OC)c(OC)c5)c4)c4ccccc4)CC3)ccn2)cc(OC)c1OC [Example 42, 4-[N-Phenyl-N-[[2-(3,4,5-trimethoxyphenyl)pyridin-4-yl]methyl]amino]-1-[[2-(3,4,5-trimethoxyphenyl)pyridin-4-yl]methyl]piperidine Trihydrochloride] | 7.15 |
| COc1ccc(N(Cc2ccnc(-c3cc(OC)c(OC)c(OC)c3)c2)C2CCN(Cc3cncc(-c4cc(OC)c(OC)c(OC)c4)c3)CC2)cc1 [Example 67, 4-[N-(4-Methoxyphenyl)-N-[[2-(3,4,5-trimethoxyphenyl)pyridin-4-yl]methyl]amino]-1-[[3-(3,4,5-trimethoxyphenyl)pyridin-5-yl]methyl]piperidine Trihydrochloride] | 7.05 |
| COc1cccc(N(Cc2ccnc(-c3cc(OC)c(OC)c(OC)c3)c2)C2CCN(Cc3ccnc(-c4cc(OC)c(OC)c(OC)c4)c3)CC2)c1 [Example 88, 4-[N-(3-Methoxyphenyl)-N-[[2-(3,4,5-trimethoxyphenyl)pyridin-4-yl]methyl]amino]-1-[[2-(3,4,5-trimethoxyphenyl)pyridin-4-yl]methyl]piperidine Trihydrochloride] | 7.15 |
| COc1cccc(N(Cc2ccnc(-c3cc(OC)c(OC)c(OC)c3)c2)C2CCN(Cc3cncc(-c4cc(OC)c(OC)c(OC)c4)c3)CC2)c1 [Example 89, 4-[N-(3-Methoxyphenyl)-N-[[2-(3,4,5-trimethoxyphenyl)pyridin-4-yl]methyl]amino]-1-[[3-(3,4,5-trimethoxyphenyl)pyridin-5-yl]methyl]piperidine Trihydrochloride] | 7.05 |
| COc1cc(-c2cc(CN3CCC(N(Cc4ccnc(-c5cc(OC)c(OC)c(OC)c5)c4)c4ccc(SC)cc4)CC3)ccn2)cc(OC)c1OC [Example 111, 1-[[2-(3,4,5-Trimethoxyphenyl)pyridin-4-yl]methyl]-4-[N-[[2-(3,4,5-trimethoxyphenyl)pyridin-4-yl]methyl]-N-(4-methylthiophenyl)amino]piperidine Trihydrochloride] | 7.10 |
| COc1cc(-c2cc(CN3CCC(N(Cc4ccnc(-c5cc(OC)c(OC)c(OC)c5)c4)c4ccc(F)cc4)CC3)ccn2)cc(OC)c1OC [Example 157, 4-[N-(4-Fluorophenyl)-N-[[2-(3,4,5-trimethoxyphenyl)pyridin-4-yl]methyl]amino]-1-[[2-(3,4,5-trimethoxyphenyl)pyridin-4-yl]methyl]piperidine Trihydrochloride] | 7.05 |

Same assay, conditions: examined similar to the Test Example 1 procedure; even at a concentration as high as 10 μM

| Structure (SMILES) | inhibitory effect on cell adhesion (result in words) |
| --- | --- |
| c1cc(CNC2CCN(Cc3ccncc3)CC2)ccn1 [Preparation Example 91, 1-(4-Pycolyl)-4-(4-pycolylamino)piperidine Tetrahydrochloride, reference compound] | inactive |
